{"source": "PubChem BioAssay (NCI)", "assay_in_all_cases": "inhibition of tumour cell growth, NCI panel, 48 h", "key": {"[1]": {"tested_on": "TK-10 renal"}, "[2]": {"tested_on": "NCI-H226 lung"}, "[3]": {"tested_on": "SNB-75 CNS"}, "[4]": {"tested_on": "SR leukemia"}, "[5]": {"tested_on": "SK-MEL-28 melanoma"}, "[6]": {"tested_on": "HT29 colon"}, "[7]": {"tested_on": "BT-549 breast"}, "[8]": {"tested_on": "HCT-116 colon"}, "[9]": {"tested_on": "LOX IMVI melanoma"}, "[10]": {"tested_on": "OVCAR-3 ovarian"}, "[11]": {"tested_on": "SF-295 CNS"}, "[12]": {"tested_on": "IGROV1 ovarian"}, "[13]": {"tested_on": "UACC-62 melanoma"}, "[14]": {"tested_on": "COLO 205 colon"}, "[15]": {"tested_on": "NCI-H23 lung"}, "[16]": {"tested_on": "MDA-MB-468 breast"}, "[17]": {"tested_on": "UO-31 renal"}, "[18]": {"tested_on": "HS 578T breast"}, "[19]": {"tested_on": "MDA-MB-231 breast"}, "[20]": {"tested_on": "NCI/ADR-RES ovarian"}, "[21]": {"tested_on": "A549 NSCLC"}, "[22]": {"tested_on": "CCRF-CEM leukemia"}, "[23]": {"tested_on": "K-562 leukemia"}, "[24]": {"tested_on": "HCC-2998 colon"}, "[25]": {"tested_on": "HL-60(TB) leukemia"}, "[26]": {"tested_on": "RXF 393 renal"}, "[27]": {"tested_on": "MALME-3M melanoma"}, "[28]": {"tested_on": "HOP-92 NSCLC"}, "[29]": {"tested_on": "SK-MEL-5 melanoma"}, "[30]": {"tested_on": "PC-3 prostate"}}, "note": "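Exposure lasted 48 hours, with cells grown in 96-well plates and compounds tested at five concentrations. GI50 = concentration required for 50% inhibition of growth. TGI: total growth inhibition.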", "data": [{"smiles": "Fc1ccc(N2CC(Cn3c(C(F)(F)F)cc4c(Cl)ncnc43)C2)c(F)c1", "values": [{"measurement": "GI50", "setting": "[1]", "value": 19.3, "unit": "µM"}, {"measurement": "TGI", "setting": "[1]", "value": 50.7, "unit": "µM"}, {"measurement": "GI50", "setting": "[2]", "value": 14, "unit": "µM"}, {"measurement": "TGI", "setting": "[2]", "value": 31, "unit": "µM"}, {"measurement": "GI50", "setting": "[3]", "value": 12.1, "unit": "µM"}, {"measurement": "TGI", "setting": "[3]", "value": 24.8, "unit": "µM"}, {"measurement": "GI50", "setting": "[4]", "value": 2.14, "unit": "µM"}, {"measurement": "TGI", "setting": "[4]", "value": 6.92, "unit": "µM"}, {"measurement": "GI50", "setting": "[5]", "value": 2.08, "unit": "µM"}, {"measurement": "TGI", "setting": "[5]", "value": 4.91, "unit": "µM"}, {"measurement": "GI50", "setting": "[6]", "value": 3.44, "unit": "µM"}, {"measurement": "TGI", "setting": "[6]", "value": 16.3, "unit": "µM"}, {"measurement": "GI50", "setting": "[7]", "value": 10.7, "unit": "µM"}, {"measurement": "TGI", "setting": "[7]", "value": 22.9, "unit": "µM"}, {"measurement": "GI50", "setting": "[8]", "value": 1.92, "unit": "µM"}, {"measurement": "TGI", "setting": "[8]", "value": 3.93, "unit": "µM"}, {"measurement": "GI50", "setting": "[9]", "value": 1.63, "unit": "µM"}, {"measurement": "TGI", "setting": "[9]", "value": 2.99, "unit": "µM"}, {"measurement": "GI50", "setting": "[10]", "value": 2.55, "unit": "µM"}, {"measurement": "TGI", "setting": "[10]", "value": 6.42, "unit": "µM"}, {"measurement": "GI50", "setting": "[11]", "value": 11.5, "unit": "µM"}, {"measurement": "TGI", "setting": "[11]", "value": 24.5, "unit": "µM"}, {"measurement": "GI50", "setting": "[12]", "value": 1.85, "unit": "µM"}, {"measurement": "TGI", "setting": "[12]", "value": 3.54, "unit": "µM"}, {"measurement": "GI50", "setting": "[13]", "value": 3.16, "unit": "µM"}, {"measurement": "TGI", "setting": "[13]", "value": 13, "unit": "µM"}, {"measurement": "GI50", "setting": "[14]", "value": 15.1, "unit": "µM"}, {"measurement": "TGI", "setting": "[14]", "value": 32.5, "unit": "µM"}, {"measurement": "GI50", "setting": "[15]", "value": 2.65, "unit": "µM"}, {"measurement": "TGI", "setting": "[15]", "value": 8.34, "unit": "µM"}, {"measurement": "GI50", "setting": "[16]", "value": 1.63, "unit": "µM"}, {"measurement": "TGI", "setting": "[16]", "value": 3.2, "unit": "µM"}, {"measurement": "GI50", "setting": "[17]", "value": 2.68, "unit": "µM"}, {"measurement": "TGI", "setting": "[17]", "value": 10.8, "unit": "µM"}, {"measurement": "GI50", "setting": "[18]", "value": 7.06, "unit": "µM"}, {"measurement": "TGI", "setting": "[18]", "value": 41.8, "unit": "µM"}, {"measurement": "GI50", "setting": "[19]", "value": 1.63, "unit": "µM"}, {"measurement": "TGI", "setting": "[19]", "value": 3.09, "unit": "µM"}, {"measurement": "GI50", "setting": "[20]", "value": 10.2, "unit": "µM"}, {"measurement": "TGI", "setting": "[20]", "value": 26.5, "unit": "µM"}, {"measurement": "GI50", "setting": "[21]", "value": 17.3, "unit": "µM"}, {"measurement": "TGI", "setting": "[21]", "value": 35.7, "unit": "µM"}, {"measurement": "GI50", "setting": "[22]", "value": 10.4, "unit": "µM"}, {"measurement": "TGI", "setting": "[22]", "value": "> 100", "unit": "µM"}, {"measurement": "GI50", "setting": "[23]", "value": 2.34, "unit": "µM"}, {"measurement": "TGI", "setting": "[23]", "value": 7.13, "unit": "µM"}, {"measurement": "GI50", "setting": "[24]", "value": 1.96, "unit": "µM"}, {"measurement": "TGI", "setting": "[24]", "value": 3.48, "unit": "µM"}, {"measurement": "GI50", "setting": "[25]", "value": 2.26, "unit": "µM"}, {"measurement": "TGI", "setting": "[25]", "value": 6.38, "unit": "µM"}, {"measurement": "GI50", "setting": "[26]", "value": 2.07, "unit": "µM"}, {"measurement": "TGI", "setting": "[26]", "value": 4.99, "unit": "µM"}, {"measurement": "GI50", "setting": "[27]", "value": 12.6, "unit": "µM"}, {"measurement": "TGI", "setting": "[27]", "value": 25.2, "unit": "µM"}, {"measurement": "GI50", "setting": "[28]", "value": 11, "unit": "µM"}, {"measurement": "TGI", "setting": "[28]", "value": 25.4, "unit": "µM"}, {"measurement": "GI50", "setting": "[29]", "value": 10.9, "unit": "µM"}, {"measurement": "TGI", "setting": "[29]", "value": 22.9, "unit": "µM"}, {"measurement": "GI50", "setting": "[30]", "value": 3.07, "unit": "µM"}]}]}
